From article PMC8765320, “Identification of a Proteasome-Targeting Arylsulfonamide with Potential for the Treatment of Chagas’ Disease” (Antimicrobial Agents and Chemotherapy, 2022)
Like-named read-outs stand apart in the source and are kept apart here.

Key:
T. cruzi epimastigotes = assay: T. cruzi epimastigote drug sensitivity assay (resazurin); format: cell-based, Trypanosoma cruzi; details: for EC50: Trypanosoma cruzi; for susceptibility of CRISPR-edited epimastigotes: β4 F24L and I29M, at all of the concentrations tested
Procedure: To examine the effects of test compounds on the growth of T. cruzi epimastigotes, mid-log-phase parasites were seeded into 96-well plates at a cell density of 5 × 10^5 cells ml^−1. Cells were exposed to test compounds over a range of concentrations (2-fold serial dilutions). Cells were incubated for 4 days, and then 20 μl of 2.5 mM resazurin was added to each well, before measuring the fluorescence (excitation, 528 nm; emission, 590 nm), following a further 24 h of incubation. […] In this equation, [I] represents the inhibitor concentration, and m is the slope factor. Experiments were repeated at least two times, and the data are presented as means plus the standard deviations.

[1] = tested on: ubiquitinated proteins in T. cruzi epimastigotes; assay: Accumulation of ubiquitinated proteins in treated epimastigotes (LC-MS/MS); format: cell-based, Trypanosoma cruzi; details: epimastigotes pretreated 8 h at 3× EC50 (methods: 8× EC50); one biological replicate
Procedure: In cells where the function of the proteasome has been compromised, there is a concomitant build-up of ubiquitinated proteins earmarked for degradation. […] Control cultures were treated for the same period of time in the presence of dimethyl sulfoxide (DMSO). Enrichment of ubiquitinated proteins was achieved by immunoprecipitation using magnetic beads conjugated to an antibody specific for the remnant of ubiquitinated lysines following digestion with trypsin and/or LysC. We used liquid chromatography-tandem mass spectrometry (LC-MS/MS) to calculate the ubiquitination ratio of each sample by dividing the reporter intensity of ubiquitinated proteins by the reporter intensity of total protein (see Table S8). As expected, the accumulation of ubiquitinylated proteins was highest in epimastigotes treated with bortezomib (2.7-fold higher than in the DMSO-treated control), which is known to inhibit all three catalytic activities of the proteasome (Fig. 3). […] Similarly, ubiquitinated proteins accumulated to levels 1.9-fold higher in compound 1-treated parasites compared to those recovered from DMSO-treated control cells.
Controls were incubated in the presence of diluent (DMSO). Cells were harvested by centrifugation (1,912 × g, 15 min, 4°C) and washed with ice-cold PBS (1,912 × g, 5 min, 4°C); finally, the cell pellets were resuspended in 1.5 ml of ice-cold lysis buffer (1 mM EDTA, 1 mM DTT, 100 μM TLCK, and 1× Roche EDTA-free cOmplete protease inhibitor cocktail in 50 mM potassium phosphate buffer [pH 7.4]). Cell suspensions were submitted to three freeze-thaw cycles in a dry ice/ethanol bath to biologically inactivate the parasites and then lysed using a OneShot cell disruptor (Constant Systems) at 30 kpsi.
Cell lysates were centrifuged (100,000 × g, 20 min, 4°C), supernatants were collected, and the protein concentrations were determined by using a standard Bio-Rad protein assay. […]

[2] = tested on: T. cruzi amastigotes within Vero cells; assay: Drug sensitivity assay against T. cruzi-infected Vero cells (intracellular amastigotes); format: cell-based, Trypanosoma cruzi; details: for EC50: Trypanosoma cruzi, Vero
Procedure: The clonal Leishmania donovani cell line LdBOB (derived from MHOM/SD/62/1S-CL2D) was grown as either promastigotes or axenic amastigotes in media specific for each developmental stage, as previously described ([32]). T. cruzi epimastigotes from the Silvio strain (MHOM/BR/78/Silvio; clone X10/7A [33]) were grown at 28°C in RTH/FBS (RPMI 1640 medium supplemented with Trypticase, hemin, HEPES, and 10% heat-inactivated fetal calf serum (FCS) [Fisher Scientific]) ([34]). Bloodstream form T. brucei “single marker” S427 (T7RPOL TETR NEO) were cultured in the presence of G418 (15 μg ml^−1) at 37°C in HMI9-T media in the presence of 5% CO2. HepG2 cells (ECACC 85011430) were obtained from European Collection of Authenticated Cell Culture (ECACC). Cells were maintained in full growth medium (minimal essential medium [MEM] with GlutaMAX (Thermo Fisher), supplemented with 1% MEM nonessential amino acids (Sigma) and 10% heat-inactivated FBS and cultured at 37°C in the presence of 5% CO2. Cells were passaged twice weekly by detaching adherent cells with 0.05% trypsin/EDTA (Sigma) and diluted into fresh media. Cells were never grown beyond 80% confluence. Vero cells (African green monkey kidney cells; ECCAC 84113001) were maintained at 37°C, 5% CO2 in Dulbecco modified Eagle medium (DMEM; Lonza) supplemented with 10% FCS and subcultured every 2 days. T. cruzi metacyclic trypomastigotes were obtained from late-log-phase epimastigote cultures (initial inoculum, 10^6 ml^−1) after ca. 7 to 10 days at 28°C in RTH/FBS. Trypomastigote-rich cultures were incubated with Vero cells overnight at 37°C and 5% CO2 in DMEM/10% FCS. The following day, extracellular parasites were removed by washing the Vero cell monolayer three times. Infected monolayers were maintained at 37°C and in 5% CO2, DMEM/10% FCS was replaced every 48 h until the trypomastigotes reemerged from the Vero cells ([9]).
Drug sensitivity assays against T. cruzi-infected Vero cells were carried out as previously described ([37]); however, in this instance, assays were carried out in 96-well plates. Data were processed using GRAFIT (Erithacus software) and fitted to a two-parameter equation, as described above.

T. cruzi = details: cited from earlier work
Chagas' disease = details: cited from earlier work
[3] = read-out: Mean EC50 ± SD, cell line RES II (compound 1-resistant, β5 D225N)
[4] = read-out: Mean EC50 ± SD, cell line RES IV (compound 1-resistant, no proteasome mutation)
[5] = cell line Wild type, read-out: Mean EC50 ± SD
[6] = read-out: Mean EC50 ± SD, cell line RES I (compound 1-resistant, β5 D225N)
[7] = read-out: Mean EC50 ± SD, cell line RES III (compound 1-resistant, β5 D225N)
[8] = read-out: Mean EC50 ± SD, cell line RES V (compound 1-resistant, β4 I27T)
[9] = read-out: Mean EC50 ± SD, cell line Res I-β5 OE (β5 WT overexpressed in RES I)
[10] = read-out: Mean EC50 ± SD, cell line β4 F24L/I29M (CRISPR-edited)
[11] = read-out: Mean EC50 ± SD, cell line β5 D225N-OE (overexpressing mutated β5)
[12] = in Vero cells, cell line RES 1, read-out: EC50 values
[13] = in Vero cells, cell line RES 5, read-out: EC50 values
[14] = in Vero cells, cell line Wild-type, read-out: EC50 values
[15] = read-out: EC50 values, in Vero cells, cell line β4 F24L/I29M

| SMILES | EC50 (T. cruzi epimastigotes; [3]) | EC50 (T. cruzi epimastigotes; [4]) | fold change versus the WT (T. cruzi epimastigotes; cell line RES I) | fold change versus the WT (T. cruzi epimastigotes; cell line RES II) | fold change versus the WT (T. cruzi epimastigotes; cell line RES III) | fold change versus the WT (T. cruzi epimastigotes; cell line RES IV) | fold change versus the WT (T. cruzi epimastigotes; cell line RES V) | fold change versus the WT (T. cruzi epimastigotes; cell line Res I-β5 OE) | fold change versus the WT (T. cruzi epimastigotes; cell line β4 F24L/I29M) | fold change versus the WT (T. cruzi epimastigotes; cell line β5 D225N-OE) | accumulation of ubiquitinated proteins versus DMSO-treated control [1] | EC50 (T. cruzi epimastigotes; [5]) | EC50 (T. cruzi epimastigotes; [6]) | EC50 (T. cruzi epimastigotes; [7]) | EC50 (T. cruzi epimastigotes; [8]) | EC50 (T. cruzi epimastigotes; [9]) | EC50 (T. cruzi epimastigotes; [10]) | EC50 (T. cruzi epimastigotes; [11]) | susceptibility of CRISPR-edited epimastigotes (T. cruzi epimastigotes) | EC50 [2, 12] | also measured |
| --- | --- | --- | --- | --- | --- | --- | --- | --- | --- | --- | --- | --- | --- | --- | --- | --- | --- | --- | --- | --- | --- |
| CC(C)C[C@H](NC(=O)[C@H](Cc1ccccc1)NC(=O)c1cnccn1)B(O)O [Bortezomib, bortezomib] | 0.3 ± 0.01 µM | 0.6 ± 0.05 µM | 1 fold | 1 fold | 1 fold | 2.5 fold | 1 fold | 1 fold | 1 fold | 1 fold | 2.7 fold | – | – | – | – | – | – | – | – | – | EC50 (T. cruzi epimastigotes; read-out: Mean EC50 ± SD, cell line Wild type): 0.2 ± 0.004 µM; cross-resistance against RES I to V clones (T. cruzi epimastigotes; compound 1-resistant clones RES I to V): no evidence of cross-resistance |
| O=C(Nc1ccc(F)c(-c2cn3nc(-c4ccccc4)cnc3n2)c1)N1CCCC1 [Compound 2] | 5 ± 0.2 µM | 0.1 ± 0.01 µM | 100 fold | 125 fold | 125 fold | 2.5 fold | 20 fold | 6.5 fold | > 250 fold | 58 fold | – | 0.04 ± 0.001 µM | 4 ± 0.08 µM | 5 ± 0.4 µM | 0.8 ± 0.03 µM | 0.3 ± 0.01 µM | > 10 µM | 2 ± 0.1 µM | refractory | – | – |
| CSc1ccc(OCc2ncc([N+](=O)[O-])n2C)cc1 [Fexinidazole, fexinidazole] | – | – | – | – | – | – | – | – | – | – | – | – | – | – | – | – | – | – | – | 8 ± 1 µM | EC50 ([2]; in Vero cells, cell line ME OE, (*) one biological replicate, read-out: EC50 values): 5 ± 1 µM; EC50 [2, 13]: 4 ± 0.7 µM; EC50 [2, 14]: 4 ± 0.8 µM; EC50 ([2]; in Vero cells, cell line β5 OE rescue R1, (*) one biological replicate, read-out: EC50 values): 4 ± 0.6 µM; EC50 [2, 15]: 6 ± 0.6 µM; EC50 ([2]; read-out: EC50 values, in Vero cells, cell line β5 OE): 3 ± 0.3 µM; fold change versus WT ([2]; in Vero cells, cell line ME OE): 1 fold; fold change versus WT ([2]; in Vero cells, cell line RES 1): 2 fold; fold change versus WT ([2]; in Vero cells, cell line RES 5): 1 fold; fold change versus WT ([2]; in Vero cells, cell line Wild-type): 1 fold; fold change versus WT ([2]; in Vero cells, cell line β4 F24L/I29M): 2 fold; fold change versus WT ([2]; in Vero cells, cell line β5 D225N-OE): 1 fold; fold change versus WT ([2]; in Vero cells, cell line β5 OE): 1 fold; fold change versus WT ([2]; in Vero cells, cell line β5 OE rescue R1): 1 fold |
| Cc1nc(C)c(C(=O)Nc2ccc(F)c(-c3nc4ncc(-c5ccccn5)cn4n3)c2)o1 [GNF6702] | > 10 µM | > 10 µM | – | – | – | – | – | – | – | – | 1.45 fold | 0.3 ± 0.02 µM | > 10 µM | > 10 µM | 10 ± 0.2 µM | 2 ± 0.3 µM | > 10 µM | > 10 µM | refractory | 16 ± 3 µM | EC50 [2, 13]: 3 ± 0.4 µM; EC50 [2, 14]: 0.2 ± 0.03 µM; EC50 ([2]; in Vero cells, cell line β5 OE, read-out: EC50 values): 0.2 ± 0.1 µM; EC50 [2, 15]: > 1.5 µM; EC50 ([2]; read-out: EC50 values, in Vero cells, cell line β5 D225N-OE, (*) one biological replicate): > 5 µM; treated mice with no detectable parasites in blood, colon, or heart tissue (T. cruzi; 10 mg kg−1 twice daily, after 4 weeks of immunosuppression): All but one of the eight; efficacy in a mouse model of infection (T. cruzi; dosed twice daily at 10 mg kg−1): matched the efficacy of benznidazole |
| O=C(Cn1ccnc1[N+](=O)[O-])NCc1ccccc1 [benznidazole] | – | – | – | – | – | – | – | – | – | – | – | – | – | – | – | – | – | – | – | – | outcome of modified treatment regimen in mouse models of infection (T. cruzi; higher doses given in pulses over prolonged periods): sterile parasitological cure; interruption or discontinuation of treatment due to severe toxic side effects (Chagas' disease): ≤ 30 % of cases; individuals cured (Chagas' disease; prolonged treatment during the acute stage): up to 70% |
| CC1CS(=O)(=O)CCN1/N=C/c1ccc([N+](=O)[O-])o1 (stereo not drawn) [nifurtimox] | – | – | – | – | – | – | – | – | – | – | – | – | – | – | – | – | – | – | – | – | individuals cured (Chagas' disease; in vivo): up to 70% |
